From patent US20250325552A1, “SUBSTITUTED THIADIAZOLYL DERIVATIVES AS DNA POLYMERASE THETA INHIBITORS” (IDEAYA Biosciences, Inc., priority 2020, published 2025)

molecular target: Polθ theta (1-899) (hPolQ) (Homo sapiens (Human), UniProt O75417); test: Biological Assay 1: Polθ ATPase activity, NADH oxidation-coupled enzymatic assay (10 nM enzyme, 30 min); type: biochemical; details: Polθ (1-899) 10 nM, 100 μM ATP, 300 nM dT50 ssDNA; Examples 1 to 268; read-out: ATPase NADH coupling:Standard Screening:hPolQ IC50
Procedure, shortened: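 Polθ (1-899) at 10 nM was preincubated with compound for 15 min at room temperature in 20 mM Tris pH 7.80, 80 mM KCl, 10 mM MgCl2. An equal volume of 100 μM ATP, 300 nM dT50 ssDNA and a PK/LDH–NADH coupling system was then added. A340 was read each minute for 30 min. IC50 came from rate slopes over 10-point series with a four-parameter fit.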

Polθ theta (1-899) (hPolQ), sequence (O75417 1-899): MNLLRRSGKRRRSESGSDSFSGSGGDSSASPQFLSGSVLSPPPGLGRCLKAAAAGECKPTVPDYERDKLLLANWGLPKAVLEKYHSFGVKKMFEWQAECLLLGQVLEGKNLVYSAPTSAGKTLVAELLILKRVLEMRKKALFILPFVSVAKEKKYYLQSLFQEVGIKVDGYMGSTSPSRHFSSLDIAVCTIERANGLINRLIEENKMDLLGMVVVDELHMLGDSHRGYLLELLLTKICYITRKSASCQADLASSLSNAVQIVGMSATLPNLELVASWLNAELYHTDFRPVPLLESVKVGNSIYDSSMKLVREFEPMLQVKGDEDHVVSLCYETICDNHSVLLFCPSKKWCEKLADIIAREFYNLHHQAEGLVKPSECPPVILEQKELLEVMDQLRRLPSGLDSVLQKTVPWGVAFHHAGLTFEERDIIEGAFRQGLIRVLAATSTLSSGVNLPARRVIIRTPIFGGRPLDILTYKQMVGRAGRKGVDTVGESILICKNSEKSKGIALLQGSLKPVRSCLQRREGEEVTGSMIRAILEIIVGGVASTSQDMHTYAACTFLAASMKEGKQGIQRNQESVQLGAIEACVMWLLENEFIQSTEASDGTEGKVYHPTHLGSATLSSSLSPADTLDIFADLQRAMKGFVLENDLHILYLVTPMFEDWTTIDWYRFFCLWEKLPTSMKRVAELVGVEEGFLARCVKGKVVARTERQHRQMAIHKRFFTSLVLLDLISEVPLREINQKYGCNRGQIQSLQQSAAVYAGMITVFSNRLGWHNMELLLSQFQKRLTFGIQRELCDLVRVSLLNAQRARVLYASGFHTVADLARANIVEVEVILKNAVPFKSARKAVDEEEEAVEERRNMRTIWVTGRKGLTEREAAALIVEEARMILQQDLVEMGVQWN

Compound | IC50 [µM]
COc1cnc(C)cc1-c1cc(C)ncc1C(=O)Nc1nnc(OCc2ccc(OC(F)F)cn2)s1 [Example 82, N-(5-((5-(difluoromethoxy)pyridin-2-yl)methoxy)-1,3,4-thiadiazol-2-yl)-5′-methoxy-2′,6-dimethyl-(4,4′-bipyridine)-3-carboxamide] | ≤ 0.2
COc1cnc(Cl)cc1-c1cc(C)ncc1C(=O)Nc1nnc(OC[C@H]2C[C@@H](O)C2)s1 [Example 193, 2′-chloro-N-(5-(((1s,3s)-3-hydroxycyclobutyl)methoxy)-1,3,4-thiadiazol-2-yl)-5′-methoxy-6-methyl-(4,4′-bipyridine)-3-carboxamide] | ≤ 0.2
COc1cnc(Cl)cc1-c1cc(C)ncc1C(=O)Nc1nnc(OCC2CCNC2)s1 (racemic) [Example 175, 2′-chloro-5′-methoxy-6-methyl-N-(5-(pyrrolidin-3-ylmethoxy)-1,3,4-thiadiazol-2-yl)-(4,4′-bipyridine)-3-carboxamide] | ≤ 0.2
COc1cnc(Cl)cc1-c1cc(C)ncc1C(=O)Nc1nnc(OC[C@@H]2CO[C@@H](C)C2)s1 (single isomer, unassigned) [Example 254] | ≤ 0.2
COc1cnc(Cl)cc1-c1cc(C)ncc1C(=O)Nc1nnc(OCc2ccc([C@@H](C)O)cn2)s1 [Example 69, (R)-2′-chloro-N-(5-((5-(1-hydroxyethyl)pyridin-2-yl)methoxy)-1,3,4-thiadiazol-2-yl)-5′-methoxy-6-methyl-(4,4′-bipyridine)-3-carboxamide] | ≤ 0.2
COc1cnc(C)cc1-c1cc(C)ncc1C(=O)Nc1nnc(OCc2ccc(C(C)(C)O)cn2)s1 [Example 76, N-(5-((5-(2-hydroxypropan-2-yl)pyridin-2-yl)methoxy)-1,3,4-thiadiazol-2-yl)-5′-methoxy-2′,6-dimethyl-(4,4′-bipyridine)-3-carboxamide] | ≤ 0.2
COc1cnc(Cl)cc1-c1cc(C)ncc1C(=O)Nc1nnc(OCC23CCC(O)(CC2)CC3)s1 [Example 136, 2′-chloro-N-(5-((4-hydroxybicyclo(2.2.2)octan-1-yl)methoxy)-1,3,4-thiadiazol-2-yl)-5′-methoxy-6-methyl-(4,4′-bipyridine)-3-carboxamide] | ≤ 0.2

Next, values leading:

IC50 [µM] | Compound
≤ 0.2 | COc1cccc(F)c1-c1cc(C)ncc1C(=O)Nc1nnc(OCc2ccc([S@](C)(=N)=O)cn2)s1 [Example 149, 4-(2-fluoro-6-methoxyphenyl)-6-methyl-N-(5-((5-((R)—S-methylsulfonimidoyl)pyridin-2-yl)methoxy)-1,3,4-thiadiazol-2-yl)nicotinamide]
≤ 0.2 | CN=[S@@](C)(=O)c1ccc(COc2nnc(NC(=O)c3cnc(C)cc3-c3cc(Cl)ccc3OC)s2)nc1 [Example 152, (S)-4-(5-chloro-2-methoxyphenyl)-N-(5-((5-(N,S-dimethylsulfonimidoyl)pyridin-2-yl)methoxy)-1,3,4-thiadiazol-2-yl)-6-methylnicotinamide]
≤ 0.2 | COc1cccc(F)c1-c1cc(C)ncc1C(=O)Nc1nnc(OCc2ccc(C3(O)CC3)cn2)s1 [Example 48, 4-(2-fluoro-6-methoxyphenyl)-N-(5-((5-(1-hydroxycyclopropyl)pyridin-2-yl)methoxy)-1,3,4-thiadiazol-2-yl)-6-methylnicotinamide]
≤ 0.2 | COc1ccc(F)cc1-c1cc(C)ncc1C(=O)Nc1nnc(OCc2ccc(Cl)cn2)s1 [Example 13, N-(5-((5-chloropyridin-2-yl)methoxy)-1,3,4-thiadiazol-2-yl)-4-(5-fluoro-2-methoxyphenyl)-6-methylnicotinamide]
≤ 0.2 | COc1ccc(COc2nnc(NC(=O)c3cnc(C)cc3-c3cc(Cl)ccc3OC)s2)nc1 [Example 52, 4-(5-chloro-2-methoxyphenyl)-N-(5-((5-methoxypyridin-2-yl)methoxy)-1,3,4-thiadiazol-2-yl)-6-methylpyridine-3-carboxamide]
≤ 0.2 | COc1cccc(F)c1-c1cc(C)ncc1C(=O)Nc1nnc(OCc2cnc([C@H](C)O)cn2)s1 [Example 110, 4-(2-fluoro-6-methoxyphenyl)-N-(5-((5-((S)-1-hydroxyethyl)pyrazin-2-yl)methoxy)-1,3,4-thiadiazol-2-yl)-6-methylnicotinamide]
